Measured values from ChEMBL document CHEMBL1129157, “Design and synthesis of a new class of conformationally constrained inhibitors to probe the active sites of thermolysine and neutral endopeptidase 24.11” (Bioorg Med Chem Lett, 1996).

Tests used:
Neprilysin = target: T1, Neprilysin (Rattus norvegicus, UniProt P07861); test: Compound was tested for inhibition of rat kidney neutral endopeptidase
T1 sequence (P07861 whole entry): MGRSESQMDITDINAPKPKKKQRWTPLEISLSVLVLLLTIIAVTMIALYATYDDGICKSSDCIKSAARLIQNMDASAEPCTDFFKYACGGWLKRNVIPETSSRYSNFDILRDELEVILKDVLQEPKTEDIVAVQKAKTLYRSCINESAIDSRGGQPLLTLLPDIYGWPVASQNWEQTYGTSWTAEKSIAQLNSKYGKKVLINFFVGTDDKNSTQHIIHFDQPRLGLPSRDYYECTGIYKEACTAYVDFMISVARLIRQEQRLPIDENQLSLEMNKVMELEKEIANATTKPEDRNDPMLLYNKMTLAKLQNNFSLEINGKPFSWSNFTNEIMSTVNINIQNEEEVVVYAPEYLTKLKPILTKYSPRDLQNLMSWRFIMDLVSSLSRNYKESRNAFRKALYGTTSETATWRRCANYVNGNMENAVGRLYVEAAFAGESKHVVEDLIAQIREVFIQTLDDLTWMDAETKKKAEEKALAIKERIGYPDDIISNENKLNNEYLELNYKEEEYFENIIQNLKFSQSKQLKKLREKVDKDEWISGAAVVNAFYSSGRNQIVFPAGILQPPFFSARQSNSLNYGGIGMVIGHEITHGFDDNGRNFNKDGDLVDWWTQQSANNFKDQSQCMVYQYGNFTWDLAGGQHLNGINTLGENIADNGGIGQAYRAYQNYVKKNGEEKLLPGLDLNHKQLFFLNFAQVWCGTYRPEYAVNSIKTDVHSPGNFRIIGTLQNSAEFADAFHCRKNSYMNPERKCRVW

[1] = Compound was tested for inhibition of thermolysine, a bacterial zinc-endopeptidase; format: functional

Structure (SMILES) | IC50 (Neprilysin) [nM] | IC50 [1] [nM]
O=C(O)[C@@H]1CCCC2c3ccccc3C[C@H](CS)C(=O)N21 (some centres not stated) | > 300 | 
O=C(O)CNC(=O)[C@@H](CS)Cc1ccccc1 [(S)-THIORPHAN] |  | 1800
O=C(O)CNC(=O)[C@H](CS)Cc1ccccc1 [(R)-THIORPHAN] |  | 3000
O=C(O)CNC(=O)[C@H]1[C@H](S)CC[C@@H]1c1ccccc1 | 430 | 29000
O=C(O)CNC(=O)[C@@H]1[C@@H](S)CC[C@H]1c1ccccc1 | 480 | 110000
